Key:
[1] = test system: cerebellar granule neurons (CGN) culture; experiment: NO-induced cell death on cultured neurons; type: cell-based; conditions: Neuron, cell death induced by nitric oxide, concentration-dependent, read-out: IC50 for blocking nitric oxide-induced neuron cell death
Protocol: Efficacy of caffeic acid phenethyl ester on treating neurodegenerative disorders as well as other disorders related to NO-induced cell death was assessed by testing its ability to block NO-induced cell death on cultured neurons according to a method described in Du, et al., Proc Natl Acad Sci, 2001, 98, 14669-14674.

[2] = test system: isolated working rabbit heart; experiment: Isolated working rabbit heart model of ischaemia; type: in vivo; conditions: 30 mg/kg intraperitoneal injection, p<0.05
Protocol: An isolated working rabbit heart model was use to define the cardioprotective effects (function, metabolic and ultrastructure) of caffeic acid phenethyl ester during ischaemia by the method described in Choong, et al., J Cardiovasc Surg (Torino), 1993 October, 34(5):423-433. More specifically, hearts (n=7 for each group) were arrested with and exposed to reinfusion (45 min) throughout the ischaemic period with a cold (4° C.) cardioplegic solution. […] The release of lactate dehydrogenase decreased during 40-minute ischaemic arrest (55.14+/-8.65 vs 19.33+/-7.4 IU/L perfusate for control and treatment, respectively; p<0.05). See […] et al., J Cardiovasc Pharmacol, 1999 October; 34(4):604-611.

[3] = test system: TH-positive neurons in the substantia nigra pars compacta (SNpc); experiment: MPTP mouse model, stereological count of TH-positive neurons in SNpc; type: in vivo, mice
Protocol: Caffeic acid phenethyl ester was evaluated for its efficacy in treating a neurodegenerative disorder in mice. Three groups of eight-week-old male C57B1/6 mice (Taconic Farms Inc., Germantown, N.Y.), 5-7 per group, were used. A group of mice were administered for 9 days with caffeic acid phenethyl ester (5 or 20 mg/kg/day in 10% alcohol by oral gavage, or 40 mg/kg/day in 10% alcohol by intraperitoneal injection). As a control, a second group of mice were administered with 10% alcohol free of caffeic acid phenethyl ester. These two groups of mice then received four intraperitoneal injections of 1-methyl-4-phenyl-1,2,3,6-tetrahydropyridine (“MPTP”)-HCl (20 mg/kg of free base) in saline at 2 hour intervals in a single day, as described in Liberatore, et al., Nat Med, 1999, 5, 1403-1409. Seven days after the last administration of MPTP, the mice were anesthetized by halothane inhalation. […] They were then incubated with rabbit polyclonal anti-tyrosine hydroxylase (anti-TH) antibody (1:2,500, CALBIOCHEM, La Jolla, Calif.), goat biotinylated-conjugated polyclonal anti-rabbit antibody (1:250; Vector Laboratories, Burlingame, Calif.), horseradish-peroxidase conjugated avidin/biotin complex (VECTASTAIN ABC Reagent, Vector Laboratories), and successively exposed to diaminobenzidine for TH-immunohistochemistry analysis and stereological quantification of TH-positive neurons. […]

[4] = test system: striatal levels of dopamine, DOPAC and HVA; experiment: MPTP mouse model, striatal levels of dopamine and metabolites by HPLC; type: in vivo, mice; conditions: 40 mg/kg intraperitoneally, 48 hours after MPTP
Protocol: Caffeic acid phenethyl ester was evaluated for its efficacy in treating a neurodegenerative disorder in mice. Three groups of eight-week-old male C57B1/6 mice (Taconic Farms Inc., Germantown, N.Y.), 5-7 per group, were used. A group of mice were administered for 9 days with caffeic acid phenethyl ester (5 or 20 mg/kg/day in 10% alcohol by oral gavage, or 40 mg/kg/day in 10% alcohol by intraperitoneal injection). As a control, a second group of mice were administered with 10% alcohol free of caffeic acid phenethyl ester. These two groups of mice then received four intraperitoneal injections of 1-methyl-4-phenyl-1,2,3,6-tetrahydropyridine (“MPTP”)-HCl (20 mg/kg of free base) in saline at 2 hour intervals in a single day, as described in Liberatore, et al., Nat Med, 1999, 5, 1403-1409. The striatal levels of dopamine and its metabolites, dihydroxyphenylacetic acid (DOPAC) and homovanillic acid (HVA), were also determined by HPLC with electrochemical detector. See, e.g., Du, et al., Proc Natl Acad Sci, 2001, 98, 14669-14674.

[5] = test system: cerebellar granule neurons (CGN) culture; experiment: 6-hydroxydopamine-induced neurotoxicity on cultured neurons; type: cell-based; conditions: 6-hydroxydopamine used to induce neurotoxicity

## O=C(/C=C/c1ccc(O)c(O)c1)OCCc1ccccc1 [caffeic acid phenethyl ester]
[1]
  IC50: ~1000 nM
[2]; n=7, control 71.48+/−9.66%
  postischaemic recovery of cardiac output: 90.83+/−3.2%
[2]; control 55.14+/−8.65
  release of lactate dehydrogenase during 40-minute ischaemic arrest: 19.33+/−7.4 IU/L perfusate
[3]; C57B1/6 mice, 5 or 20 mg/kg/day oral or 40 mg/kg/day i.p. for 9 days, then MPTP 4x20 mg/kg, 7 days after MPTP, MPTP control approximately 49%
  number of TH-positive neurons in SNpc, as compared with saline-only mice: up to 100%
[3]; treatment alone for nine days, no MPTP
  effect of compound alone on number of TH-positive neurons: did not significantly alter
[4]; MPTP control decreased by 35%
  MPTP-induced reduction of striatal HVA level: 16%
[4]; MPTP control decreased by 46%
  MPTP-induced reduction of striatal DOPAC level: −2%
[4]; MPTP control decreased by 62%
  MPTP-induced reduction of striatal dopamine level: 3%
[5]
  neuroprotective effect against 6-hydroxydopamine-induced neurotoxicity: neuroprotective effect
